This is an account of results in patent publication US11098061B2 (Celgene CAR LLC, priority 2013, dated 2021).

The target in assay [1] is T1, MK2 (Homo sapiens (Human), UniProt P49137). The assay is described as follows: MK2 modification assessment by whole protein mass spectrometry. The format is binding. The note with it: intact MK2, 60 min, 10-fold excess of compound to protein. The procedure, abridged: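 MK2 treated with compound is analysed intact by MALDI-TOF after C4 cleanup in sinapinic acid matrix. Percent modification is the centroid mass shift against control MK2 divided by compound mass.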

The target in assay [2] is T1, MK2. Description: MK2 cellular assay (Hsp27 phosphorylation in Thp-1 cells). The note with it: differentiated Thp-1 cells, compound 1 hour, 50 ng/ml LPS 15 minutes, phosphorylation of Hsp27; read-out: MK2EC50. The format is cell-based. The procedure, abridged:
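PMA-differentiated (10 ng/ml, 2 days) human Thp-1 monocytic cells given compound for 1 h, washed, then stimulated with 50 ng/ml LPS for 15 min. Hsp27 phosphorylation measured by western blot of lysates (20 μg protein); EC50 from dose-response inhibition.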

A further assay deals with TNFα release. The assay is described as follows: PO mouse PD experiment (TNFα release after LPS). In kind it is in vivo. The conditions noted are these: CD-1 male mice, 30 mg/kg PO, 1 hour prior to LPS, read-out: % Inhibition of TNFa. The method, then:
CD-1 male mice, approximately 5 weeks old were acquired from Charles River Laboratories. Animals were housed in ventilated cages with a 12/12 light cycle and provided rodent chow and water ad libitum. Mice were acclimated at least 1 week prior to study initiation (approximately 6 weeks old). Five (5) mice per group were predosed at 30 mg/kg PO with one of the following compounds: III-8, III-35, II-27, III-47, III-56, V-39, II-27, III-37, II-e-1, II-e-3, III-40, and V-58 (by oral gavage as a suspension in 0.5% methyl cellulose/0.25% Tween 80 in deionized water), 1 hour prior to LPS administration. LPS (E.Coli 055:B5 from Sigma, Cat #L2880) was diluted in 0.9% sterile saline (Webster Veterinary Supply, Cat #07-883-6734) to a final concentration of 30 μg/mL. Animals were administered 15 μg in 0.5 mL/mouse (approximately 0.5 mg/kg LPS) intraperitoneally. One hour post LPS administration, the mice were sacrificed via CO2 and whole blood was collected by cardiac puncture. Blood was placed in EDTA K2 tubes (Braintree Scientific, Cat #MT-1395), inverted 3 times and placed on wet ice until centrifugation at 4° C. Plasma was collected and stored on dry ice until stored at −80° C. until processing. TNFα levels were quantified using the “Mouse TNF-alpha Ultra-Sensitive Kit” from mesoscale.com (catalog number K152BHC-2) in conjunction with an MSD plate reader.

The target of assay [3] is p38a activated, mitogen-activated protein kinase-activated protein kinase 2 (MAPKAP-K2 or MK-2) enzyme (Homo sapiens (Human), UniProt P49137). The assay is described as follows: MK2 Omnia continuous-read kinase assay for compound potency. In kind it is biochemical. The conditions noted are these: [MK-2]=0.4 nM, [ATP]=1.0 mM, [ST3-Sox]=10 μM. The procedure, abridged: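 Continuous Omnia fluorescence read (λex360/λem485) every 71 s after starting with 0.4 nM MK-2, with 1.0 mM ATP (appKM 8-10 μM) and 10 μM ST3-Sox substrate.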
p38a activated, mitogen-activated protein kinase-activated protein kinase 2 (MAPKAP-K2 or MK-2) enzyme, sequence (P49137 whole entry): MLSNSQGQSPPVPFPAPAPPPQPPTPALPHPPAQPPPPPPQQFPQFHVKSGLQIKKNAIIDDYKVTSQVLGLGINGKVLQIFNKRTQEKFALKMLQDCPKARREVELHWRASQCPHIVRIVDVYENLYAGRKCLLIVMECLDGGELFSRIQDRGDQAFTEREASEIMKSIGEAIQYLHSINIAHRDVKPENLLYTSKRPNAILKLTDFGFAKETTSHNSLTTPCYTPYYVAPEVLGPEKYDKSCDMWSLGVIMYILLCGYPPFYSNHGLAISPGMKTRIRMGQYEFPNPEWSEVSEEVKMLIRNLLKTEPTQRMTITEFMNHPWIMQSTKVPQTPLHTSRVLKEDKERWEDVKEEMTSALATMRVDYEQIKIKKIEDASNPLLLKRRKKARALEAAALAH

T1 sequence (P49137 whole entry): as above

Consider `C=CC(=O)N1c2cc(NC(=O)c3ccc4cc5n(c4c3)C3(CCC3)CNC5=O)ccc2OCC1(C)C` [Compound V-58, N-(4-acryloyl-3,3-dimethyl-3,4-dihydro-2H-benzo[b][1,4]oxazin-6-yl)-1′-oxo-2′,3′-dihydro-1′H-spiro[cyclobutane-1,4′-pyrazino [1,2-a]indole]-7′-carboxamide], for which, at MK2 [1], the “MK2 Mass Mod” value is “E (mass modification of ≥70%)”. For the same compound, the EC50 at MK2 [2] was less than 100 nM. In the assay on TNFα release, the inhibition in vivo at 30 mg/kg is no more than 20%. For the same compound, the half-maximal inhibitory concentration (IC50) – broadly, the concentration at which inhibition is half-maximal – in assay [3] is less than 100 nM.

For the compound `C=CC(=O)Nc1cc(NC(=O)c2ccc3sc4c(c3c2)NC[C@@H](C)NC4=O)ccc1C1CCN(C)CC1` [III-56, (R)—N-(3-acrylamido-4-(1-methylpiperidin-4-yl)phenyl)-3-methyl-5-oxo-2,3,4,5-tetrahydro-1H-benzo[4,5]thieno[3,2-e][1,4]diazepine-9-carboxamide], in the assay on TNFα release, the inhibition in vivo at 30 mg/kg was no more than 20%.

For the compound `C=CC(=O)Nc1cc(-c2ccc3c(ccc4sc5c(c43)NC[C@@H](C)NC5=O)n2)ccc1C` [III-37, (R)—N-(2-methyl-5-(10-methyl-8-oxo-9,10,11,12-tetrahydro-8H-[1,4]diazepino[5′,6′:4,5]thieno[3,2-f]quinolin-3-yl)phenyl)acrylamide], on MK2 [1], the “MK2 Mass Mod” value was “E (mass modification of ≥70%)”. Besides, the EC50 on MK2 [2] was less than 100 nM. Further, in the assay with TNFα release, the inhibition in vivo at 30 mg/kg is no more than 20%. The IC50 in assay [3] was less than 100 nM.

For `C=CC(=O)Nc1cccc(-c2cc3c(ccc4c5c([nH]c43)CCC5=O)cn2)c1` [II-e-1, N-(3-(7-oxo-7,8,9,10-tetrahydrocyclopenta[4,5]pyrrolo[2,3-f]isoquinolin-2-yl)phenyl)acrylamide], the “MK2 Mass Mod” value at MK2 [1] is “E (mass modification of ≥70%)”. Also, the EC50 at MK2 [2] was 501 to 999 nM. In addition, the inhibition in vivo at 30 mg/kg in the assay on TNFα release is no more than 20%. In addition, the 50% inhibitory concentration (IC50) in assay [3] was in the range of 101 to 500 nM.

On to `C=CC(=O)Nc1cccc2oc(-c3ccc4cc5n(c4c3)C3(CCC3)CNC5=O)nc12` [Compound V-39, N-(2-(1′-oxo-2′,3′-dihydro-1′H-spiro[cyclobutane-1,4′-pyrazino [1,2-a]indol]-7′-yl)benzo[d]oxazol-4-yl)acrylamide], for which the “MK2 Mass Mod” value on MK2 [1] was “E (mass modification of ≥70%)”. Moreover, the EC50 on MK2 [2] was in the range of 101 to 500 nM. The inhibition in vivo at 30 mg/kg in the assay on TNFα release is no less than 81%. Besides, the IC50 in assay [3] is 101 to 500 nM.

Turning to `C=CC(=O)Nc1cc(-c2cc3c(ccc4c5c([nH]c43)CCC5=O)cn2)ccc1F` [II-e-3, N-(2-fluoro-5-(7-oxo-7,8,9,1-tetrahydrocyclopenta[4,5]pyrrolo[2,3-f]isoquinolin-2-yl)phenyl)acrylamide], the inhibition in vivo at 30 mg/kg in the assay on TNFα release was no more than 20%.

Consider `C=CC(=O)Nc1cc(NC(=O)c2ccc3sc4c(c3c2)NC[C@@H](C)NC4=O)ccc1OCCN(C)C` [III-35, (R)—N-(3-acrylamido-4-(2-(dimethylamino)ethoxy)phenyl)-3-methyl-5-oxo-2,3,4,5-tetrahydro-1H-benzo[4,5]thieno[3,2-e][1,4]diazepine-9-carboxamide], for which the “MK2 Mass Mod” value on MK2 [1] is listed as “E (mass modification of ≥70%)”. For the same compound, the EC50 at MK2 [2] was 101 to 500 nM. The inhibition in vivo at 30 mg/kg in the assay on TNFα release is no more than 20%. Also, the half-maximal inhibitory concentration (IC50) in assay [3] was less than 100 nM.

For `C=CC(=O)N1CCOc2ccc(-c3cc4c(ccc5c6c([nH]c54)CCC6=O)cn3)cc21` [II-e-8, 2-(4-acryloyl-3,4-dihydro-2H-benzo[b][1,4]oxazin-6-yl)-8,9-dihydrocyclopenta[4,5]pyrrolo[2,3-f]isoquinolin-7(10H)-one], the “MK2 Mass Mod” value at MK2 [1] is “E (mass modification of ≥70%)”. The EC50 at MK2 [2] was greater than 1000 nM. Besides, in assay [3], the IC50 was less than 100 nM.

With `C=CC(=O)Nc1cc(Cl)cc2oc(-c3ccc4cc5n(c4c3)C3(CCC3)CNC5=O)nc12` [Compound V-62, N-(6-chloro-2-(1′-oxo-2′,3′-dihydro-1′H-spiro[cyclobutane-1,4′-pyrazino [1,2-a]indol]-7′-yl)benzo[d]oxazol-4-yl)acrylamide], the “MK2 Mass Mod” value on MK2 [1] is on record as “E (mass modification of ≥70%)”. The EC50 at MK2 [2] was 101 to 500 nM. Moreover, the 50% inhibitory concentration (IC50) in assay [3] lay in the range of 101 to 500 nM.

For the compound `C=CC(=O)N1CC(C)Oc2ccc(-c3cc4c(ccc5c6c([nH]c54)CCC6=O)cn3)cc21` (stereo not shown) [II-e-17, 2-(4-acryloyl-2-methyl-3,4-dihydro-2H-benzo[b][1,4]oxazin-6-yl)-8,9-dihydrocyclopenta[4,5]pyrrolo[2,3-f]isoquinolin-7(10H)-one], the “MK2 Mass Mod” value on MK2 [1] is “E (mass modification of ≥70%)”. In addition, the EC50 at MK2 [2] lay within 501 to 999 nM. Moreover, in assay [3], the IC50 was less than 100 nM.

Regarding `C=CC(=O)Nc1cc(-c2nccc(-c3cc4n(c3)CCNC4=O)n2)ccc1OC` [V-c-2, N-(2-methoxy-5-(4-(1-oxo-1,2,3,4-tetrahydropyrrolo[1,2-a]pyrazin-7-yl)pyrimidin-2-yl)phenyl)acrylamide], the “MK2 Mass Mod” value on MK2 [1] is on record as “E (mass modification of ≥70%)”. For the same compound, the EC50 on MK2 [2] was greater than 1000 nM. Besides, the IC50 in assay [3] was less than 100 nM.

On to `C=CC(=O)N1C[C@@H](C)Oc2ccc(NC(=O)c3ccc4sc5c(c4c3)NC[C@@H](C)NC5=O)cc21` [III-31, (R)—N—((R)-4-acryloyl-2-methyl-3,4-dihydro-2H-benzo[b][1,4]oxazin-6-yl)-3-methyl-5-oxo-2,3,4,5-tetrahydro-1H-benzo[4,5]thieno[3,2-e][1,4]diazepine-9-carboxamide], for which, at MK2 [1], the “MK2 Mass Mod” value is “E (mass modification of ≥70%)”. The EC50 at MK2 [2] was less than 100 nM. In addition, in assay [3], the 50% inhibitory concentration (IC50) was less than 100 nM.

For the compound `C=CC(=O)Nc1cc(-c2nccc(-c3cc4c([nH]3)C3(CCCNC3)CNC4=O)n2)ccc1OCCOC` (racemic) [Compound I-7, N-(2-(2-methoxyethoxy)-5-(4-(4′-oxo-1′,4′,5′,6′-tetrahydrospiro[piperidine-3,7′-pyrrolo[3,2-c]pyridin]-2′-yl)pyrimidin-2-yl)phenyl)acrylamide], on MK2 [1], the “MK2 Mass Mod” value is given as “E (mass modification of ≥70%)”. Further, on MK2 [2], the EC50 was 501 to 999 nM. For the same compound, the IC50 in assay [3] was less than 100 nM.

Regarding `C=CC(=O)Nc1cc(NC(=O)c2ccc3sc4c(c3c2)NC[C@@H](C)NC4=O)ccc1F` [III-6, (R)—N-(3-acrylamido-4-fluorophenyl)-3-methyl-5-oxo-2,3,4,5-tetrahydro-1H-benzo[4,5]thieno[3,2-e][1,4]diazepine-9-carboxamide], the “MK2 Mass Mod” value on MK2 [1] is “E (mass modification of ≥70%)”. Besides, the EC50 on MK2 [2] is less than 100 nM. Moreover, the IC50 in assay [3] was less than 100 nM.

On to `C=CC(=O)Nc1cccc(NC(=O)c2ccc3sc4c(c3c2)NC[C@@H](C)NC4=O)c1` [III-12, (R)—N-(3-acrylamidophenyl)-3-methyl-5-oxo-2,3,4,5-tetrahydro-1H-benzo[4,5]thieno[3,2-e][1,4]diazepine-9-carboxamide], for which the “MK2 Mass Mod” value at MK2 [1] is on record as “F (mass modification of 31-69%)”. In addition, the EC50 on MK2 [2] is 501 to 999 nM. Also, the IC50 in assay [3] was less than 100 nM.

In the case of `C=CC(=O)Nc1cc(-c2cc3c(cn2)CCc2c-3[nH]c3c2C(=O)NCC3)ccc1OCCCN` [II-10, N-(2-(3-aminopropoxy)-5-(7-ox-6,7,8,9,11-hexahydro-5H-pyrido[3′,4′:4,5]pyrrolo[2,3-f]isoquinolin-2-yl)phenyl)acrylamide], the “MK2 Mass Mod” value at MK2 [1] is “E (mass modification of ≥70%)”. Moreover, the EC50 at MK2 [2] fell in the range of 501 to 999 nM. Besides, in assay [3], the half-maximal inhibitory concentration (IC50) was less than 100 nM.

As for `C=CC(=O)Nc1cc(NC(=O)c2ccc3sc4c(c3c2)NC[C@@H](C)NC4=O)ccc1N1CCCC1` [III-3, (R)—N-(3-acrylamido-4-(pyrrolidin-1-yl)phenyl)-3-methyl-5-oxo-2,3,4,5-tetrahydro-1H-benzo[4,5]thieno[3,2-e][1,4]diazepine-9-carboxamide], on MK2 [1], the “MK2 Mass Mod” value is reported as “E (mass modification of ≥70%)”. The EC50 on MK2 [2] was less than 100 nM. Moreover, the half-inhibitory concentration (IC50) in assay [3] was less than 100 nM.

Take `C=CS(=O)(=O)N1CCC[C@@H](NC(=O)c2ccc3sc4c(c3c2)NC[C@@H](C)NC4=O)C1` [III-44]: the “MK2 Mass Mod” value on MK2 [1] is recorded as “E (mass modification of ≥70%)”. Also, the EC50 on MK2 [2] was in the range of 101 to 500 nM. The 50% inhibitory concentration (IC50) in assay [3] is less than 100 nM.

`C=CC(=O)Nc1cc(-c2cc(-c3cc4c([nH]3)C3(CCCNC3)CNC4=O)ccn2)ccc1F` (stereo not shown) [Compound I-8]: the “MK2 Mass Mod” value on MK2 [1] is listed as “E (mass modification of ≥70%)”. Besides, the EC50 on MK2 [2] is greater than 1000 nM. Besides, the IC50 in assay [3] is less than 100 nM.
